Experimental data taken from patent US20240228488A1 (TAKEDA PHARMACEUTICAL COMPANY LIMITED, priority 2021, published 2024).
Each block holds one molecule with its values, some of them ahead of it.

How the values were obtained:
[1] = target: human activated kallikrein enzyme (Homo sapiens, UniProt P03952); assay: Plasma kallikrein inhibition, fluorogenic PFR-AMC substrate, 500 pM activated kallikrein format; format: biochemical; conditions: 500 pM activated kallikrein, 300 uM PFR-AMC, 30 min preincubation, 10 min reaction; read-out: Primary Dose Response Assay: Average EC50
How it was run: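 Enzyme (500 pM) was preincubated with inhibitor for 30 min at room temperature in 20 mM Tris pH 7.5, 1 mM EDTA, 150 mM NaCl, 0.1% PEG-400 and 0.1% Triton X-100. The reaction was started with 300 uM PFR-AMC, run 10 min, and fluorescence read at 460 nm (380 nm excitation). EC50 derived.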

plasma kallikrein = target: T1, plasma kallikrein (Homo sapiens, UniProt P03952); assay: Neat human plasma assay, FXIIa contact pathway-activated, PFR-AMC substrate; format: biochemical; conditions: citrated human plasma 78% final, 10 nM human FXIIa, 100 μM PFR-AMC; read-out: Human Plasma Assay: IC90
T1 construct: from tissue
How it was run: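 Citrated human plasma (78% final) with compound, contact-activated by 10 nM human FXIIa in pKal buffer pH 7.5, with 100 μM PFR-AMC. Fluorescence (360/480 nm) followed 5 min at room temperature; rates versus concentration fitted by 4-parameter equation for IC50/IC90.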

T1 sequence (P03952 391-638 limits assumed): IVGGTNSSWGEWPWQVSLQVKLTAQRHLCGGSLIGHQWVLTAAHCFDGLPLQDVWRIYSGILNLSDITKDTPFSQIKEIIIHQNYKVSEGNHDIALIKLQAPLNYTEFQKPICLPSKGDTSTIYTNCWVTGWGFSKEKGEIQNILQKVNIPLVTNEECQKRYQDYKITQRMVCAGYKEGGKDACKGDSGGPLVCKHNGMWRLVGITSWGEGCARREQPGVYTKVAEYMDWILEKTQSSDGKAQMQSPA
T1 sequence (P03952 20-390 partner limits assumed): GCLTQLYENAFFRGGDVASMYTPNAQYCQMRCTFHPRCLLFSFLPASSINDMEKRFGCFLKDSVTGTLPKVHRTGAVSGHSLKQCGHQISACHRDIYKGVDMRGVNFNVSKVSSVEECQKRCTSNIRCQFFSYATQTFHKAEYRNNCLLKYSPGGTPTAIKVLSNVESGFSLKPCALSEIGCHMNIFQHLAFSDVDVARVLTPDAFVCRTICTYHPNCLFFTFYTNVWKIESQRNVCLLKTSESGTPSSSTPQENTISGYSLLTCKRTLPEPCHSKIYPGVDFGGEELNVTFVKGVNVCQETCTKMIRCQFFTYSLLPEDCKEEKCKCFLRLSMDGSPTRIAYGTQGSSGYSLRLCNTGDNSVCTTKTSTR
human activated kallikrein enzyme, sequence (P03952 391-638 limits assumed): as the sequence (P03952 391-638 limits assumed) above
human activated kallikrein enzyme, sequence (P03952 20-390 partner limits assumed): as the sequence (P03952 20-390 partner limits assumed) above

Compound: O=C(Nc1cc(NCc2cn3cc(C4CC4)cc(N4CCNC(C(F)(F)F)C4)c3n2)ccn1)[C@H]1C[C@@H]1c1cccc(Cl)c1 (stereo partly drawn) [Example I-21, (1S,2S)-2-(3-chlorophenyl)-N-(4-(((6-cyclopropyl-8-(3-(trifluoromethyl)piperazin-1-yl)imidazo[1,2-a]pyridin-2-yl)methyl)amino)pyridin-2-yl)cyclopropane-1-carboxamide]
EC50 [1]: 1 to 10 nM
IC90 (plasma kallikrein): 1500 to 10000 nM

Compound: O=C(Nc1cc(NCc2cn3cc(C4CC4)cc(N4CCN5CCC4C5)c3n2)ccn1)[C@H]1C[C@@H]1c1cccc(Cl)c1 (stereo partly drawn) [Example I-23, (1S,2S)-N-(4-(((8-(1,4-diazabicyclo[3.2.1]octan-4-yl)-6-cyclopropylimidazo[1,2-a]pyridin-2-yl)methyl)amino)pyridin-2-yl)-2-(3-chlorophenyl)cyclopropane-1-carboxamide]
EC50 [1]: < 1 nM
IC90 (plasma kallikrein): 400 to 1500 nM

Compound: CN(C)C1CCN(c2cc(C3CC3)cn3cc(CNc4ccnc(NC(=O)[C@H]5C[C@@H]5c5cccc(Cl)c5)c4)nc23)C1 (stereo partly drawn) [Example I-25, (1S,2S)-2-(3-chlorophenyl)-N-(4-(((6-cyclopropyl-8-(3-(dimethylamino)pyrrolidin-1-yl)imidazo[1,2-a]pyridin-2-yl)methyl)amino)pyridin-2-yl)cyclopropane-1-carboxamide]
EC50 [1]: < 1 nM
IC90 (plasma kallikrein): 400 to 1500 nM

Compound: O=C(Nc1cc(NCc2cn3cc(C4CC4)cc(NC4COC4)c3n2)ccn1)[C@H]1C[C@@H]1c1cccc(Cl)c1 [Example I-26, (1S,2S)-2-(3-chlorophenyl)-N-(4-(((6-cyclopropyl-8-(oxetan-3-ylamino)imidazo[1,2-a]pyridin-2-yl)methyl)amino)pyridin-2-yl)cyclopropane-1-carboxamide]
EC50 [1]: < 1 nM
IC90 (plasma kallikrein): 1500 to 10000 nM

Compound: CN1CCC(Oc2cc(C3CC3)cn3cc(CNc4cc(NC(=O)[C@H]5C[C@@H]5c5cccc(Cl)c5)ncn4)nc23)C1=O (stereo partly drawn) [Example I-147, (1S,2S)-2-(3-chlorophenyl)-N-(6-(((6-cyclopropyl-8-((1-methyl-2-oxopyrrolidin-3-yl)oxy)imidazo[1,2-a]pyridin-2-yl)methyl)amino)pyrimidin-4-yl)cyclopropane-1-carboxamide]
EC50 [1]: 1 to 10 nM
IC90 (plasma kallikrein): 1500 to 10000 nM

Compound: CN(C)S(=O)(=O)c1cc(C2CC2)cn2cc(CNc3cc(NC(=O)[C@H]4C[C@@H]4c4cccc(Cl)c4)ncn3)nc12 [Example I-151, (1S,2S)-2-(3-chlorophenyl)-N-(6-(((6-cyclopropyl-8-(N,N-dimethylsulfamoyl)imidazo[1,2-a]pyridin-2-yl)methyl)amino)pyrimidin-4-yl)cyclopropane-1-carboxamide]
EC50 [1]: 1 to 10 nM
IC90 (plasma kallikrein): 1500 to 10000 nM

Compound: CC(C)(O)c1cc(C2CC2)cn2cc(CNc3cc(NC(=O)[C@H]4C[C@@H]4c4cccc(Cl)c4)ncn3)nc12 [Example I-159, (1S,2S)-2-(3-chlorophenyl)-N-(6-(((6-cyclopropyl-8-(2-hydroxypropan-2-yl)imidazo[1,2-a]pyridin-2-yl)methyl)amino)pyrimidin-4-yl)cyclopropane-1-carboxamide]
EC50 [1]: 1 to 10 nM
IC90 (plasma kallikrein): 10000 to 48000 nM

Compound: CS(=O)(=O)c1cc(C2CC2)cn2cc(CNc3cc(NC(=O)[C@H]4C[C@@H]4c4cccc(Cl)c4)ncn3)nc12 [Example I-162, (1S,2S)-2-(3-chlorophenyl)-N-(6-(((6-cyclopropyl-8-(methylsulfonyl)imidazo[1,2-a]pyridin-2-yl)methyl)amino)pyrimidin-4-yl)cyclopropane-1-carboxamide]
EC50 [1]: 1 to 10 nM
IC90 (plasma kallikrein): 1500 to 10000 nM

Compound: CN1CC(c2cc(C3CC3)cn3cc(CNc4cc(NC(=O)[C@H]5C[C@@H]5c5cccc(Cl)c5)ncn4)nc23)C1 [Example I-193, (1S,2S)-2-(3-chlorophenyl)-N-(6-(((6-cyclopropyl-8-(1-methylazetidin-3-yl)imidazo[1,2-a]pyridin-2-yl)methyl)amino)pyrimidin-4-yl)cyclopropane-1-carboxamide]
EC50 [1]: < 1 nM
IC90 (plasma kallikrein): < 400 nM

Compound: CN1CC(O)(c2cc(C3CC3)cn3cc(CNc4cc(NC(=O)[C@H]5C[C@@H]5c5cccc(Cl)c5)ncn4)nc23)C1 [Example I-198, (1S,2S)-2-(3-chlorophenyl)-N-(6-(((6-cyclopropyl-8-(3-hydroxy-1-methylazetidin-3-yl)imidazo[1,2-a]pyridin-2-yl)methyl)amino)pyrimidin-4-yl)cyclopropane-1-carboxamide]
EC50 [1]: < 1 nM
IC90 (plasma kallikrein): < 400 nM

Results, then the molecule that gave them:

EC50 [1]: < 1 nM
IC90 (plasma kallikrein): 1500 to 10000 nM
Compound: O=C(Nc1cc(NCc2cn3cc(C4CC4)cc(N4CC5(C4)CN(C4CC4)C5)c3n2)ccn1)[C@H]1C[C@@H]1c1cccc(Cl)c1 [Example I-24, (1S,2S)-2-(3-chlorophenyl)-N-(4-(((6-cyclopropyl-8-(6-cyclopropyl-2,6-diazaspiro[3.3]heptan-2-yl)imidazo[1,2-a]pyridin-2-yl)methyl)amino)pyridin-2-yl)cyclopropane-1-carboxamide]

EC50 [1]: < 1 nM
IC90 (plasma kallikrein): < 400 nM
Compound: Cc1ccnc([C@H]2C[C@@H]2C(=O)Nc2cc(N[C@H](C)c3cn4cc(C5CC5)cc(N5CC6(COC6)CC5=O)c4n3)nc(C)n2)n1 [Example I-27, (1S,2S)—N-(6-(((R)-1-(6-cyclopropyl-8-(7-oxo-2-oxa-6-azaspiro[3.4]octan-6-yl)imidazo[1,2-a]pyridin-2-yl)ethyl)amino)-2-methylpyrimidin-4-yl)-2-(4-methylpyrimidin-2-yl)cyclopropane-1-carboxamide]

EC50 [1]: 1 to 10 nM
IC90 (plasma kallikrein): 1500 to 10000 nM
Compound: CN1CCN(c2cc(C3CC3)cn3cc(CNc4cc(NC(=O)[C@H]5C[C@@H]5c5cccc(Cl)c5)ncn4)nc23)CC1=O [Example I-153, (1S,2S)-2-(3-chlorophenyl)-N-(6-(((6-cyclopropyl-8-(4-methyl-3-oxopiperazin-1-yl)imidazo[1,2-a]pyridin-2-yl)methyl)amino)pyrimidin-4-yl)cyclopropane-1-carboxamide]

EC50 [1]: < 1 nM
IC90 (plasma kallikrein): 1500 to 10000 nM
Compound: O=C(Nc1cc(NCc2cn3cc(C4CC4)cc(N4CCSCC4=O)c3n2)ncn1)[C@H]1C[C@@H]1c1cccc(Cl)c1 [Example I-155, (1S,2S)-2-(3-chlorophenyl)-N-(6-(((6-cyclopropyl-8-(3-oxothiomorpholino)imidazo[1,2-a]pyridin-2-yl)methyl)amino)pyrimidin-4-yl)cyclopropane-1-carboxamide]

EC50 [1]: < 1 nM
IC90 (plasma kallikrein): 1500 to 10000 nM
Compound: CN1CCN(c2cc(C3CC3)cn3cc(CNc4cc(NC(=O)[C@H]5C[C@@H]5c5cccc(Cl)c5)ncn4)nc23)C1=O [Example I-157, (1S,2S)-2-(3-chlorophenyl)-N-(6-(((6-cyclopropyl-8-(3-methyl-2-oxoimidazolidin-1-yl)imidazo[1,2-a]pyridin-2-yl)methyl)amino)pyrimidin-4-yl)cyclopropane-1-carboxamide]

EC50 [1]: < 1 nM
IC90 (plasma kallikrein): 1500 to 10000 nM
Compound: Cc1ccnc([C@H]2C[C@@H]2C(=O)Nc2cc(N(C)Cc3cn4cc(C5CC5)cc(S(C)(=O)=O)c4n3)nc(C)n2)n1 [Example I-161, (1S,2S)-N-(6-(((6-cyclopropyl-8-(methylsulfonyl)imidazo[1,2-a]pyridin-2-yl)methyl)(methyl)amino)-2-methylpyrimidin-4-yl)-2-(4-methylpyrimidin-2-yl)cyclopropane-1-carboxamide]

EC50 [1]: < 1 nM
IC90 (plasma kallikrein): 400 to 1500 nM
Compound: CN1C(=O)CN(c2cc(C3CC3)cn3cc(CNc4cc(NC(=O)[C@H]5C[C@@H]5c5cccc(Cl)c5)ncn4)nc23)C1=O [Example I-169, (1S,2S)-2-(3-chlorophenyl)-N-(6-(((6-cyclopropyl-8-(3-methyl-2,4-dioxoimidazolidin-1-yl)imidazo[1,2-a]pyridin-2-yl)methyl)amino)pyrimidin-4-yl)cyclopropane-1-carboxamide]

EC50 [1]: < 1 nM
IC90 (plasma kallikrein): 400 to 1500 nM
Compound: O=C(Nc1cc(NCc2cn3cc(C4CC4)cc(N4CCOC4=O)c3n2)ncn1)[C@H]1C[C@@H]1c1cc(Cl)ccn1 [Example I-172, (1S,2S)-2-(4-chloropyridin-2-yl)-N-(6-(((6-cyclopropyl-8-(2-oxooxazolidin-3-yl)imidazo[1,2-a]pyridin-2-yl)methyl)amino)pyrimidin-4-yl)cyclopropane-1-carboxamide]

EC50 [1]: < 1 nM
IC90 (plasma kallikrein): 1500 to 10000 nM
Compound: O=C(Nc1cc(NCc2cn3cc(C4CC4)cc(N4CCOC4=O)c3n2)ncn1)[C@H]1C[C@@H]1c1cccc(Cl)c1 [Example I-174, (1S,2S)-2-(3-chlorophenyl)-N-(6-(((6-cyclopropyl-8-(2-oxooxazolidin-3-yl)imidazo[1,2-a]pyridin-2-yl)methyl)amino)pyrimidin-4-yl)cyclopropane-1-carboxamide]

EC50 [1]: < 1 nM
IC90 (plasma kallikrein): 1500 to 10000 nM
Compound: CN1C(=O)CCN(c2cc(C3CC3)cn3cc(CNc4cc(NC(=O)[C@H]5C[C@@H]5c5cccc(Cl)c5)ncn4)nc23)C1=O [Example I-194, (1S,2S)-2-(3-chlorophenyl)-N-(6-(((6-cyclopropyl-8-(3-methyl-2,4-dioxotetrahydropyrimidin-1(2H)-yl)imidazo[1,2-a]pyridin-2-yl)methyl)amino)pyrimidin-4-yl)cyclopropane-1-carboxamide]

EC50 [1]: 1 to 10 nM
IC90 (plasma kallikrein): 1500 to 10000 nM
Compound: O=C(Nc1cc(NCc2cn3cc(C4CC4)cc(N4CCN5CC(O)CC5C4)c3n2)ncn1)[C@H]1C[C@@H]1c1cccc(Cl)c1 (stereo partly drawn) [Example I-196, (1S,2S)-2-(3-chlorophenyl)-N-(6-(((6-cyclopropyl-8-(7-hydroxyhexahydropyrrolo[1,2-a]pyrazin-2(1H)-yl)imidazo[1,2-a]pyridin-2-yl)methyl)amino)pyrimidin-4-yl)cyclopropane-1-carboxamide]
